Results published in patent US8546440B2, “Substituted bicyclic imidazole derivatives as gamma secretase modulators” (Janssen Pharmaceuticals, Inc., priority 2008, dated 2013).

Columns and labels:
Format in all cases: cell-based
Aβtotal [1] = assay: Screening for γ-secretase-modulating activity, Method 1: Aβtotal sandwich ELISA in supernatant of SKNBE2 cells carrying APP 695 wild type (Tables 12a, 12b)
Outline: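 Aβtotal in conditioned medium was measured by 6E10/biotin-4G8 sandwich ELISA with fluorogenic peroxidase read-out. Cells were wild-type APP 695 SKNBE2, treated 18 hours in glutamine-supplemented Ultraculture. IC50 came from 4-parameter fits of inhibition, or percent of control, against concentration; toxicity was checked by WST-1.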

Aβ42 = assay: Screening for γ-secretase-modulating activity, Method 2: Aβ42 Alphalisa in supernatant of SKNBE2 cells carrying APP 695 wild type (Table 12c); details: Method 2, Table 12c, incubated overnight
Outline: (§1)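 SKNBE2 cells expressing wild-type APP695, 10^4 cells/well, exposed to compound overnight at 37 °C; secreted Aβ42 and Aβtotal in supernatant measured by AlphaLISA sandwich immunoassays (Aβ42: C-terminal/N-terminal antibodies; Aβtotal: N-terminal/4G8). IC50 from 4-parameter fit of % untreated control.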

Aβtotal [2] = assay: Screening for γ-secretase-modulating activity, Method 2: Aβtotal Alphalisa in supernatant of SKNBE2 cells carrying APP 695 wild type (Table 12c); details: Method 2, Table 12c, incubated overnight
Outline: as §1

[3] = Homo sapiens, Method 1, Table 12a, SKNBE2 cells carrying APP 695 wild type, compounds 18 hours, ELISA, curve top and bottom fixed to 100 and 0, hill slope 1
[4] = Homo sapiens, Table 12b, Method 1, SKNBE2 cells carrying APP 695 wild type, cell supernatant ELISA, averaged IC50 values

Structure (SMILES): COc1cc(Nc2cccn3c(C)c(-c4ccccc4)nc23)ccc1-n1cnc(C)c1 [Compound 5]
- IC50 (Aβtotal [1]; [3]): > 1000 nM
- IC50 (Aβtotal [1]; [4]): > 3020 nM

Structure (SMILES): COc1cc(Nc2cccn3c(C)c(-c4ccccc4C(F)(F)F)nc23)ccc1-n1cnc(C)c1 [Compound 29]
- IC50 (Aβtotal [1]; [3]): > 1000 nM
- IC50 (Aβtotal [1]; [4]): > 10000 nM
- IC50 (Aβ42; Homo sapiens): 13 nM
- IC50 (Aβtotal [2]; Homo sapiens): 7080 nM

Structure (SMILES): Cc1ncn(-c2ccc(Nc3cccn4cc(-c5ccccc5C)nc34)cc2)n1 [Compound 71]
- IC50 (Aβtotal [1]; [3]): > 3000 nM
- IC50 (Aβ42; Homo sapiens): 407 nM
- IC50 (Aβtotal [2]; Homo sapiens): > 3020 nM

Structure (SMILES): COc1cc(Nc2cccn3cc(-c4ccc(F)cc4)nc23)ccc1-n1cnc(C)c1 [Compound 1]
- IC50 (Aβtotal [1]; [3]): > 5000 nM
- IC50 (Aβtotal [1]; [4]): > 5010 nM
- IC50 (Aβ42; Homo sapiens): 155 nM
- IC50 (Aβtotal [2]; Homo sapiens): 7410 nM

Structure (SMILES): COc1cc(Nc2cccn3cc(C4CCOCC4)nc23)ccc1-n1cnc(C)c1 [Compound 4]
- IC50 (Aβtotal [1]; [3]): > 3000 nM
- IC50 (Aβtotal [1]; [4]): > 3020 nM
- IC50 (Aβ42; Homo sapiens): 166 nM
- IC50 (Aβtotal [2]; Homo sapiens): > 10000 nM

Structure (SMILES): COc1nc(Nc2cccn3c(C)c(-c4ccccc4C(F)(F)F)nc23)ccc1-n1cnc(C)c1 [Compound 138]
- IC50 (Aβtotal [1]; Table 12b, Method 1, SKNBE2 cells carrying APP 695 wild type, cell supernatant ELISA, averaged IC50 values): > 3020 nM
- IC50 (Aβ42): 5 nM
- IC50 (Aβtotal [2]): 5890 nM

Structure (SMILES): COc1cc(Nc2cccn3c(C)c(-c4ccccc4Cl)nc23)ccc1-n1cnc(C)c1 [Compound 15]
- IC50 (Aβtotal [1]; [3]): > 3000 nM
- IC50 (Aβtotal [1]; [4]): > 3020 nM
- IC50 (Aβ42; Homo sapiens): 38 nM
- IC50 (Aβtotal [2]; Homo sapiens): 5500 nM

Structure (SMILES): COc1cccc(-c2cn3cccc(Nc4ccc(-n5cnc(C)c5)c(OC)c4)c3n2)c1 [Compound 33]
- IC50 (Aβtotal [1]; [3]): > 3000 nM
- IC50 (Aβtotal [1]; [4]): > 3020 nM
- IC50 (Aβ42; Homo sapiens): 71 nM
- IC50 (Aβtotal [2]; Homo sapiens): 5750 nM

Structure (SMILES): COc1cc(Nc2cccn3cc(C)nc23)ccc1-n1cnc(C)c1 [Compound 50]
- IC50 (Aβtotal [1]; [3]): > 3000 nM
- IC50 (Aβtotal [1]; [4]): > 5010 nM
- IC50 (Aβ42; Homo sapiens): 309 nM
- IC50 (Aβtotal [2]; Homo sapiens): > 10000 nM

Structure (SMILES): COc1cc(Nc2cccn3c(Cl)c(-c4ccc(F)cc4)nc23)ccc1-n1cnc(C)c1 [Compound 2]
- IC50 (Aβtotal [1]; [3]): > 3000 nM
- IC50 (Aβtotal [1]; [4]): > 3020 nM

Structure (SMILES): COc1cc(Nc2cccn3c(C)c(-c4c(F)cccc4F)nc23)ccc1-n1cnc(C)c1 [Compound 27]
- IC50 (Aβtotal [1]; [3]): > 3000 nM
- IC50 (Aβtotal [1]; [4]): > 3020 nM
